Experimental data as given in patent US12377092B2, “Polycomb inhibitors and uses thereof” (FONDAZIONE ISTITUTO FIRC DI ONCOLOGIA MOLECOLARE (IFOM), priority 2017, dated 2025).
Like-named read-outs stand apart in the source and are kept apart here.

Columns and labels:
CCM3 knock out cells = assay type: cell-based, mouse
Experimental: (§1) Cells were seeded 6.3×10^4 cells/cm^2. The day after, PTC209 and UNC1999 were added to the confluent cells. Drugs were left for one or three days depending on the aim of the experiment. Final concentrations used for the two drugs were: 1 uM PTC209 and 5 uM UNC1999.
For immunofluorescence, cells were fixed in three different ways: with 4% PAF in PBS (followed by permeabilization with 0.5% Triton X-100 for 5 minutes); with 1% PAF in triethanolamine pH 7.5, containing 0.1% Triton X-100 and 0.1% NP-40 for 10 minutes at RT or in methanol for 5 minutes at […]. Blocking (1 hour, RT) were performed in PBS containing 2% BSA and 5% donkey serum. Primary (overnight, 4° C.) and secondary (50 minutes, RT) antibodies were incubated in PBS with 2% BSA.
To check the effect of Bmi1 on junctional organisation, both wild type and CCM3 knock out cells were treated with PTC209 with the same experimental conditions described before and subsequently analysed by immunofluorescence. In particular cells were stained for VE-cadherin and PECAM1 (FIG. 7).
Experiment with combined PTC209 and UNC1999 treatments was repeated with the same experimental conditions described before and junction organisation was analysed through VE-cadherin staining and protein expression analysis (FIG. 19).

Bmi1 = target: T1, Bmi1 (Mus musculus, UniProt P25916); assay: Western blot analysis of Bmi1, wild type and CCM3 knock out immortalized lung endothelial cells; assay type: cell-based; details: 24 hours of treatment, 1 uM PTC209 vs DMSO
T1 construct: western blot analysis of Bmi1 on lysates from confluent wild type (WT) and CCM3 knockout (CCM3-KO) cells treated with PTC209; endogenous in cells; host or cells: immortalized mouse lung endothelial cells, wild type and CCM3 knock out (VECPAC/CCM3 fl/fl, TAT-Cre)
T1 sequence (P25916 1-324): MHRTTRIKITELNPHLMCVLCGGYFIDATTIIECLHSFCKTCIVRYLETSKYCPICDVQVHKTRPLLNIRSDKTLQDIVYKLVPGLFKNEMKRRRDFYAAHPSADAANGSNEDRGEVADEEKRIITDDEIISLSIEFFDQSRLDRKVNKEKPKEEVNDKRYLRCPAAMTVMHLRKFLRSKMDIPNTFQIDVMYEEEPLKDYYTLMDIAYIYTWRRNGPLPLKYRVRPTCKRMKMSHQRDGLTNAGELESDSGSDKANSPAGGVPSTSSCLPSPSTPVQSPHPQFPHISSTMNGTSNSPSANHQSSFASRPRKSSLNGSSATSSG
Experimental: (§2) Confluent cells were lysed with boiling modified Laemi sample Buffer (2% SDS, 20% glycerol, and 125 mM Tris-HCl, pH 6.8). Lysates were incubated for 10 minutes at 100° C. to allow proteins denaturation. Protein concentration was estimated using the BCA Protein Assay Kit (Pierce). Equal amount of proteins was loaded on a gel, separated by SDS-PAGE and transferred to a Protran Nitrocellulose Membrane (Whatman) 0.2 um pores. The membranes were blocked for 1 hour at RT in Tris Buffered Saline (TBS: NaCl 150 mM, Tris-HCl 10 mM pH 7.4) plus 0.1% Tween-20 containing 5% BSA or milk. The membranes were incubated with primary antibodies diluted in TBST (TBS plus 0.1% Tween-20) containing 5% of either BSA or milk overnight at 4° C. Next, membranes were rinsed three times with TBST for 5 minutes each and incubated for 45 minutes at RT with HRP-linked secondary antibodies diluted in TBST containing 5% BSA/milk. Membranes were rinsed three times with TBST for 5 minutes each and specific bindings were detected by enhanced chemiluminescence (ECL) system (Amersham Bioscience) using ChemiDoc XRS gel imaging system (Bio-Rad).
CCM3 knock out cells were immortalized lung endothelial cells derived from VECPAC/CCM3^fl/fl mice, treated with TAT-Cre recombinase. […] As control the same cell line without TAT-Cre treatment were used. […]

[1] = system: EndMT markers (Klf4, Sca1 and Fsp1); assay type: cell-based, mouse; details: 72 hours
Experimental: as §1, §2

[2] = system: EndMT markers (Klf4, Sca1 and Fsp1); assay: RT-PCR of EndMT markers, freshly isolated brain endothelial cells knockout for CCM3; assay type: cell-based, mouse; details: freshly isolated brain endothelial cells CCM3fl/fl+TAT-Cre; PTC209 72 hours from the day after recombination
Source text: Brain-derived ECs were isolated from VECPAC/CCM3^fl/fl/R26-Confetti. Brains were processed with two different MiltenyiBiotec kits depending on the age at which the mice were sacrificed: “Adult Brain Dissociation Kit”, for […] 7-days old mice, or “Neural Tissue Dissociation Kit” for less than 7-days old mice. All protocols and data sheet are available at www.milteniyibiotec.com.
Recombination of the loxP-flanked genes was induced by treating cells the day after the first splitting (1:2) with 100 ug/mL TAT-Cre-recombinase for 60 minutes in HyClone™ ADCF-MAb medium (GE Healthcare) without serum followed by 100 uM chloroquine for 30 minutes. The cells were washed with HyClone™ ADCF-MAb medium and cultured with complete medium.
RNA extraction was performed both with (A) RNeasy kits (Promega) or (B) RNAeasy Mini Kit (QIAGEN). The latter allows also the extraction of proteins from the same sample. […] For each sample, the expression level was determined with the comparative threshold cycle (Ct) method, and normalized to the housekeeping genes encoding 18S, glyceraldehyde-3-phosphate dehydrogenase (GAPDH) and hypoxanthine-guanine phosphoribosyltransferase (hprt1). Ct or threshold cycle, represents the PCR cycle at which an increase in reporter fluorescence above a base-line signal can first be detect. […]

COc1cc(Br)c(Nc2nc(-c3c(C)nc4ncccn34)cs2)c(Br)c1 [PTC209, N-(2,6-dibromo-4-methoxyphenyl)-4-(2-methylimidazo[1,2-a]pyrimidin-3-yl)thiazol-2-amine]
junctional organisation (VE-cadherin, PECAM1 immunostaining) (CCM3 knock out cells; CCM3 knock out cells): did not rescue junctional disorganisation
junctional organisation (VE-cadherin, PECAM1 immunostaining) (CCM3 knock out cells; wild type cells, CCM3 model): did not disturb junction organisation
Bmi1 protein expression (western blot) (Bmi1; CCM3 knock out cells): downregulation of Bmi1
Bmi1 protein expression (western blot) (Bmi1; wild type cells): downregulation of Bmi1
EndMT markers (Klf4, Sca1, Fsp1) protein levels (western blot) ([1]; CCM1 knock out cells, vs DMSO): strong inhibition
Klf4 protein (western blot) ([1]; wild type cells (physiological condition), CCM1 model): not downregulated
Klf4 expression (RT-PCR) [2]: not downregulated
Sca1 and Fsp1 expression (RT-PCR) [2]: strongly reduced
